Test results published in patent US20250144067A1, “PERSONALIZED STARVATION THERAPY FOR CANCER” (Faeth Therapeutics, Inc., priority 2021, published 2025).
Counter-ions that a name gives are not always drawn.

How the values were obtained:
[1] = tested on: NCI-H292 lung cancer cells; experiment: FDA drug screening, complete media vs cholesterol-free media without statin (TABLE 1); assay type: cell-based, human
[2] = tested on: NCI-H292 lung cancer cells; experiment: FDA drug screening, complete media vs cholesterol-free media with simvastatin (TABLE 2); assay type: cell-based, human; conditions: for Cholesterol-free media + simvastatin (0.04 μM) / Complete Media: NCI-H292 cells
[3] = NCI-H292 cells, cholesterol-free media without statin, FDA drug library screen
[4] = NCI-H292 cells, complete media, FDA drug library screen
[5] = complete vs cholesterol-free media, >0 enhanced anti-cancer activity, about 0 neutral, <0 antagonist
[6] = FDA library drug in cholesterol-free media with simvastatin 0.04 μM
[7] = FDA library drug in complete media
[8] = complete media vs cholesterol-free media + simvastatin (0.04 μM), >0 enhanced anti-cancer activity, about 0 neutral, <0 antagonist
[9] = Complete minus Cholesterol-free, greater than 0 enhanced anti-cancer activity, about 0 neutral, below 0 antagonists
[10] = NCI-H292 cells in cholesterol-free media without statin
[11] = NCI-H292 cells in complete media
[12] = drug in cholesterol-free media with simvastatin 0.04 μM
[13] = Complete minus Cholesterol-free, […]
[14] = NCI-H292 cells, FDA drug library screen, cholesterol-free media without statin
[15] = cholesterol-free media with simvastatin 0.04 μM, FDA drug library screen (TABLE 2)
[16] = complete media, FDA drug library screen (TABLE 2)
[17] = Complete minus Cholesterol-free, >0 enhanced anti-cancer activity, about 0 neutral, <0 antagonist
[18] = NCI-H292 cells, cholesterol-free media without statin
[19] = complete media minus cholesterol-free media + simvastatin, >0 enhanced anti-cancer activity, about 0 neutral, <0 antagonist
[20] = FDA drug library screen, cholesterol-free media with simvastatin 0.04 μM
[21] = FDA drug library screen, complete media
[22] = complete vs cholesterol-free media, greater than 0 enhanced anti-cancer activity, about 0 neutral, below 0 antagonists

**Q.** For `CCC(=O)O[C@H]1[C@H](O[C@@H]2[C@@H](C)[C@H](O[C@H]3C[C@@](C)(OC)[C@@H](O)[C@H](C)O3)[C@@H](C)C(=O)O[C@H](CC)[C@@](C)(O)[C@H](O)[C@@H](C)C(=O)[C@H](C)C[C@@]2(C)O)O[C@H](C)C[C@@H]1N(C)C` [Erythromycin estolate], which Cholesterol-free [1, 3] is on record?
**A.** 0.6279

**Q.** What about the Complete [1, 4] of the same molecule?
**A.** 1.129

**Q.** And the Difference [1, 5]?
**A.** 0.50

**Q.** And the “Cholesterol-free media + simvastatin (0.04 μM)” value [2, 6]?
**A.** 1.347

**Q.** What about the “Complete Media” value [2, 7] of the same molecule?
**A.** 1.076

**Q.** What about the Difference [2, 8] of the same molecule?
**A.** −0.27

**Q.** For `CC[C@H]1OC(=O)[C@H](C)[C@@H](O[C@H]2C[C@@](C)(OC)[C@@H](O)[C@H](C)O2)[C@H](C)[C@@H](O[C@@H]2O[C@H](C)C[C@H](N(C)C)[C@H]2O)[C@](C)(O)C[C@@H](C)C(=O)[C@H](C)[C@@H](O)[C@]1(C)O` [Erythromycin], which Difference [1, 9] is on record?
**A.** −0.99

**Q.** What about the Cholesterol-free [1, 10] of the same molecule?
**A.** 1.913

**Q.** And the Complete [1, 11]?
**A.** 0.9269

**Q.** What about the “Cholesterol-free media + simvastatin (0.04 μM)” value [2, 12] of the same molecule?
**A.** 1.202

**Q.** What about the “Complete Media” value ([2]; drug in complete media) of the same molecule?
**A.** 0.9929

**Q.** And the Difference [2, 8]?
**A.** −0.21

**Q.** How did the Difference [1, 13] turn out when `Cc1c(C(=O)Nc2ccc(S(C)(=O)=O)cc2)cn(CCO)c1-c1ccccc1C(F)(F)F` [Esaxerenone] was run?
**A.** −0.14

**Q.** And the Cholesterol-free [1, 14]?
**A.** 1.29

**Q.** And the “Cholesterol-free media + simvastatin (0.04 μM)” value [2, 15]?
**A.** 0.9763

**Q.** What about the “Complete Media” value [2, 16] of the same molecule?
**A.** 0.9118

**Q.** And the Difference ([2]; complete media minus cholesterol-free media + simvastatin (0.04 μM), […])?
**A.** −0.06

**Q.** With `CC(=O)O[C@H]1Cc2ccccc2N(C(N)=O)c2ccccc21` [Eslicarbazepine acetate] as the molecule, how does the Difference [1, 17] read?
**A.** −0.21

**Q.** What about the Cholesterol-free [1, 18] of the same molecule?
**A.** 0.9987

**Q.** And the Complete ([1]; NCI-H292 cells, complete media)?
**A.** 0.7874

**Q.** And the “Cholesterol-free media + simvastatin (0.04 μM)” value ([2]; cholesterol-free media with simvastatin 0.04 μM, cell growth value in FDA drug screen)?
**A.** 1.032

**Q.** And the “Complete Media” value ([2]; complete media, cell growth value in FDA drug screen)?
**A.** 1.104

**Q.** And the Difference [2, 19]?
**A.** 0.07

**Q.** How did the Difference [1, 17] turn out when `NC(=O)N1c2ccccc2C[C@H](O)c2ccccc21` [Eslicarbazepine] was run?
**A.** −0.02

**Q.** And the Cholesterol-free [1, 3]?
**A.** 0.8833

**Q.** And the Complete [1, 4]?
**A.** 0.8587

**Q.** And the “Cholesterol-free media + simvastatin (0.04 μM)” value [2, 12]?
**A.** 1.137

**Q.** And the “Complete Media” value ([2]; drug in complete media)?
**A.** 0.9164

**Q.** And the Difference [2, 8]?
**A.** −0.22

**Q.** How did the Cholesterol-free [1, 3] turn out when `COC(=O)CCc1ccc(OCC(O)CNC(C)C)cc1` (stereo not shown) [Esmolol (hydrochloride)] was run?
**A.** 0.7243

**Q.** What about the Complete [1, 4] of the same molecule?
**A.** 0.9329

**Q.** And the Difference [1, 5]?
**A.** 0.21

**Q.** And the “Cholesterol-free media + simvastatin (0.04 μM)” value [2, 20]?
**A.** 1.21

**Q.** And the “Complete Media” value [2, 21]?
**A.** 1.054

**Q.** And the Difference [2, 8]?
**A.** −0.16

**Q.** What does the source list for `COc1ccc2[n-]c([S+]([O-])Cc3ncc(C)c(OC)c3C)nc2c1.COc1ccc2[n-]c([S+]([O-])Cc3ncc(C)c(OC)c3C)nc2c1.[Mg+2]` (stereo not shown) [Esomeprazole magnesium]?
**A.** Cholesterol-free [1, 3]: 0.6797; Difference ([1]; complete vs cholesterol-free media, […]): 0.50; Cholesterol-free media + simvastatin (0.04 μM) [2, 20]: 0.8343; Complete Media [2, 21]: 1.003; Difference ([2]; complete media minus cholesterol-free media + simvastatin, […]): 0.17

**Q.** With `C[C@]12CC[C@@H]3c4ccc(OC(=O)c5ccccc5)cc4CC[C@H]3[C@@H]1CC[C@@H]2O` [Estradiol benzoate] as the molecule, how does the Cholesterol-free [1, 18] read?
**A.** 1.285

**Q.** And the Complete ([1]; NCI-H292 cells, complete media)?
**A.** 0.9221

**Q.** And the Difference [1, 22]?
**A.** −0.36

**Q.** What about the “Cholesterol-free media + simvastatin (0.04 μM)” value [2, 12] of the same molecule?
**A.** 1.387

**Q.** What about the “Complete Media” value ([2]; drug in complete media) of the same molecule?
**A.** 1.134

**Q.** And the Difference [2, 8]?
**A.** −0.25

**Q.** How did the Difference [1, 13] turn out when `CCC(=O)Oc1ccc2c(c1)CC[C@@H]1[C@@H]2CC[C@]2(C)[C@@H](OC(=O)CC)CC[C@@H]12` [Estradiol dipropionate] was run?
**A.** −0.07

**Q.** What about the Cholesterol-free [1, 14] of the same molecule?
**A.** 0.9963

**Q.** What about the Complete ([1]; NCI-H292 cells, FDA drug library screen, complete media) of the same molecule?
**A.** 0.9247

**Q.** What about the “Cholesterol-free media + simvastatin (0.04 μM)” value [2, 6] of the same molecule?
**A.** 1.891

**Q.** What about the “Complete Media” value [2, 7] of the same molecule?
**A.** 1.522

**Q.** What about the Difference ([2]; complete media vs cholesterol-free media + simvastatin (0.04 μM), […]) of the same molecule?
**A.** −0.37

**Q.** With `CCCCC(=O)O[C@H]1CC[C@H]2[C@@H]3CCc4cc(O)ccc4[C@H]3CC[C@]12C` [Estradiol valerianate] as the molecule, how does the Cholesterol-free [1, 18] read?
**A.** 1.221

**Q.** And the Complete ([1]; NCI-H292 cells, complete media)?
**A.** 0.8253

**Q.** And the Difference [1, 22]?
**A.** −0.40

**Q.** What about the “Cholesterol-free media + simvastatin (0.04 μM)” value [2, 15] of the same molecule?
**A.** 0.9732

**Q.** And the “Complete Media” value [2, 16]?
**A.** 0.9423

**Q.** And the Difference ([2]; complete media minus cholesterol-free media + simvastatin (0.04 μM), >0 enhanced anti-cancer activity, about 0 neutral, <0 antagonist)?
**A.** −0.03

**Q.** With `C[C@]12CC[C@@H]3c4ccc(O)cc4CC[C@H]3[C@@H]1CC[C@@H]2O` [Estradiol] as the molecule, how does the Difference [1, 17] read?
**A.** 0.06

**Q.** What about the Cholesterol-free [1, 3] of the same molecule?
**A.** 0.707

**Q.** What about the Complete [1, 4] of the same molecule?
**A.** 0.7678

**Q.** What about the “Cholesterol-free media + simvastatin (0.04 μM)” value [2, 20] of the same molecule?
**A.** 1.106

**Q.** What about the “Complete Media” value [2, 21] of the same molecule?
**A.** 1.409

**Q.** And the Difference [2, 19]?
**A.** 0.30

**Q.** Which results are given for `C[C@]12CC[C@@H]3c4ccc(O)cc4CC[C@H]3[C@@H]1C[C@@H](O)[C@@H]2O` [Estriol]?
**A.** Cholesterol-free [1, 18]: 1.14; Complete ([1]; NCI-H292 cells, complete media): 0.7448; Difference [1, 22]: −0.40; Cholesterol-free media + simvastatin (0.04 μM) [2, 20]: 0.9551; Complete Media [2, 21]: 0.851; Difference [2, 8]: −0.10

**Q.** How did the Cholesterol-free [1, 18] turn out when `C[C@]12CC[C@@H]3c4ccc(O)cc4CC[C@H]3[C@@H]1CCC2=O` [Estrone] was run?
**A.** 1.426

**Q.** And the Complete ([1]; NCI-H292 cells, complete media)?
**A.** 1.109

**Q.** What about the Difference [1, 22] of the same molecule?
**A.** −0.32

**Q.** What about the “Cholesterol-free media + simvastatin (0.04 μM)” value [2, 6] of the same molecule?
**A.** 1.409

**Q.** What about the “Complete Media” value [2, 7] of the same molecule?
**A.** 1.088

**Q.** What about the Difference [2, 8] of the same molecule?
**A.** −0.32

**Q.** What does the source list for `C[C@]12CC[C@@H]3c4ccc(OS(=O)(=O)O)cc4CC[C@H]3[C@@H]1CCC2=O` [Estropipate]?
**A.** Difference [1, 9]: −0.48; Cholesterol-free [1, 10]: 1.475; Complete [1, 11]: 0.9927; Cholesterol-free media + simvastatin (0.04 μM) [2, 20]: 0.9313; Complete Media [2, 21]: 1.077; Difference [2, 19]: 0.15
